In the METLIN SMRT retention time set (Domingo-Almenara et al. 2019) one finds RP-LC retention time data, which are given here for 79 compounds.

This data set can be described thus: gradient 5% acetonitrile 3 min, to 50% in 2 min, to 85% in 15 min, held 3 min, 100 µL/min. As to conditions: column: Zorbax Extend-C18 2.1 x 50 mm; eluents: water / acetonitrile, 0.1% formic acid. The gist of the method: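 Mixtures of ~100 pure standards were chromatographed on a Zorbax Extend-C18 column (2.1 × 50 mm, 1.8 μm) at 100 μL/min using water and acetonitrile, each with 0.1% formic acid. Detection used a quadrupole time-of-flight mass spectrometer in positive and negative ionization mode, and data collection spanned 3 months. Retention time was obtained from adduct peaks picked computationally and each checked manually.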
Consider `Cc1ccc(C(=O)N2CCCCC2c2nc(-c3ccncc3)no2)s1` (centres undefined), for which the RP-LC retention time amounted to 904 s. Compound `CCC(=O)N1CCc2cc(-c3ccc(C(=O)NCCCN4CCOCC4)cc3)ccc21` yielded an RP-LC retention time of 628 s. To `Cc1nnc2c(=O)n(CC(=O)NCC3CC3)c3cccnc3n12` belongs 610 s. In turn, `CCCN1C(=O)C2CCC(=O)N2c2ccc(C(=O)Nc3cccc(SC)c3)cc21` (centres undefined) showed an RP-LC retention time of 879 s.

Take `COc1cccc(-c2noc(-c3nn(-c4cccc(F)c4)ccc3=O)n2)c1OC`: the RP-LC retention time was found to be 807 s. To `CC(=O)N1CCC2(CC1)NC(=O)c1cccc(C)c1O2` belongs 650 s; to `Cc1ccc(S(=O)(=O)N2C[C@@H](F)C[C@H]2C(=O)N2CCc3ccccc3C2)c(C)c1`, 992 s. To `O=C1C2N=NN(Cc3nc(-c4ccccc4Br)no3)C2C(=O)N1c1ccc(F)cc1` (centres undefined) belongs 960 s; to `O=C(CCCc1nc2cccnc2n1Cc1ccccc1)N1CCN(c2ncccn2)CC1`, 563 s.

Regarding `CNC(=O)N1CCCC(c2nc(CCOCC3CCCC3)no2)C1` (centres undefined), the RP-LC retention time was 759 s. To `O=C(CN1C(=O)C2CCCCN2c2ccc(S(=O)(=O)N3CCCC3)cc21)NCc1ccccn1` (centres undefined) belongs 654 s; to `Cc1csc(-c2cc(S(=O)(=O)N3CCCC3)cn2CC(=O)N2CCCC2)n1`, 803 s; to `COCC(=O)Nc1cc2c(cc1N1CCCCC1)n(C)c(=O)c(=O)n2C`, 775 s. To `CCOc1cc(C(=O)Nc2c(-c3ccccc3)nc3ccccn23)cc(OCC)c1OCC` belongs 759 s; to `O=C(c1ccc(Br)o1)N1CCN(Cc2nnnn2-c2ccc(F)cc2)CC1`, 776 s; to `CCOc1ccc(CN(CC)Cc2cc(=O)n3cc(Cl)ccc3n2)cc1`, 654 s. On to `CCn1nc(-c2csc(S(=O)(=O)N3CCCCC3C)c2)ccc1=O` (centres undefined), for which the RP-LC retention time was 896 s. In turn, `COc1ccccc1/C=C/c1nc(C#N)c(NCCN(C)C)o1` registered an RP-LC retention time of 648 s. Then `CCCS(=O)(=O)N1CCC(Cc2nc(-c3cccnc3)n[nH]2)C1` (centres undefined), with 583 s; and `COc1ccc(OC)c(C2CN(C(=O)C3CCCC3)CC2C(=O)N2CCCCC2)c1` (centres undefined), with 831 s.

`COC(=O)c1ccccc1Nc1c(-c2ccc3c(c2)OCO3)nc2cnccn12` displayed an RP-LC retention time of 932 s. To `C=C(C)Cn1c(C(C)(C)C)cn2c3c(=O)n(C)c(=O)n(C)c3nc12` belongs 739 s; to `COc1ccc(-c2cn3cccnc3n2)cc1NC(=O)c1cc(OC)c(OC)c(OC)c1`, 643 s; to `CN(C)c1ccc(CNc2ncccc2-c2nnc(-c3ccccc3)o2)cc1`, 884 s. Then `COC(=O)c1c(NCCc2ccccc2)c2cccc(Cl)c2[nH]c1=O`, with 825 s. Then `Cc1ccn2c(NC(=O)c3ccccc3F)c(-c3ccccc3)nc2c1`, with 653 s; and `CCn1c(=O)c(N2CCCC(C(=O)NCc3cccc(Br)c3)C2)nc2ccccc21` (centres undefined), with 1080 s; and `O=C(NCCCN1CCOCC1)C1CCCN(c2cnc3nccnc3c2)C1` (centres undefined), with 565 s. With `COc1ccc(C)cc1NC(=O)N1CCC(c2nc3ccncc3n2CC(C)C)C1` (centres undefined), the RP-LC retention time is 586 s. Then `COC(=O)c1ccc(Cn2cnc3nc4c(cc3c2=O)CC(C)CC4)cc1` (centres undefined), with 852 s; and `O=C(CN1C(=O)NC2(CCCCC2)C1=O)Nc1ccc(Cl)cc1`, with 825 s; and `O=C(Cn1cnc2nc(N3CCC(C(=O)NC4CC4)CC3)sc2c1=O)Nc1cc(F)ccc1F`, with 693 s. Compound `Cc1cccc(CNC(=O)Cn2c(C)cc(-c3nnc(-c4ccccc4)o3)c2C)c1` came in with an RP-LC retention time of 921 s. To `CS(=O)(=O)N1CC(n2cc(C(=O)N3CCOCC3)nn2)C1` belongs 573 s; to `COCCOC1CCN(S(=O)(=O)c2ccccc2C)CC1`, 810 s.

In the case of `COc1cccc(-c2cc(NCc3ccc4c(c3)OCO4)nc(N)n2)c1`, the RP-LC retention time came to 768 s. To `CCCCCN(CC(=O)N1CCNCC1)C(=O)c1cccc(Br)c1` belongs 664 s; to `O=C(c1ccc(S(=O)(=O)c2ccccc2)s1)N1CCN(c2ccccn2)CC1`, 652 s. Then `CC1CCN(c2cc(-n3cnc(C(=O)N4CCC5(CC4)OCCO5)c3)ncn2)CC1`, with 834 s; and `CCc1nc2cc(-c3noc(-c4ccc(C)s4)n3)ccc2o1`, with 1200 s. Then `CNC(=O)Nc1ccc(OC)c(NC(=O)NC(=O)c2cc(F)c(F)cc2Cl)c1`, with 784 s; and `O=S(=O)(c1cc(F)ccc1F)N1CCN(Cc2cccc(F)c2)C2(CCOCC2)C1`, with 886 s; and `COC(=O)c1c(C)[nH]c(C(=O)N2CCC(CC(=O)NCCC(C)N3CCCCCC3)CC2)c1C` (centres undefined), with 604 s. Take `CCN(CC)CCNC(=O)C1(O)c2ccccc2NC(=O)N1c1ccc(C)c(C)c1` (centres undefined): the RP-LC retention time was found to be 571 s.

On to `O=C1COc2cc(S(=O)(=O)N3CCCC3C(=O)NCCN3CCCCCC3)c(Cl)cc2N1` (centres undefined), for which the RP-LC retention time worked out at 587 s. In turn, `Cc1ccc2nc(-c3ccccc3)c(Nc3ccc4c(c3)OCO4)n2c1` showed an RP-LC retention time of 717 s. To `CCS(=O)(=O)N1CC(=O)N(c2cc(C)ccc2C)C(C)(C(=O)NCc2ccccc2)C1` (centres undefined) belongs 807 s; to `COc1cc(-c2nc(C3CC(=O)N(c4ccc(C)cc4)C3)no2)cc(OC)c1OC` (centres undefined), 834 s; to `CN1CCCn2cc(S(=O)(=O)Nc3ccc(Cl)cc3F)cc2C1=O`, 727 s. Then `COc1ccc(C)cc1NC(=O)N1CCCC1c1cc(C)no1` (centres undefined), with 835 s. Then `Cc1ccc(N2CC(c3noc(C4CCC4)n3)CC2=O)cc1` (centres undefined), with 914 s; and `CC1CN2C=NC(N3CCN(C(=O)Nc4ccc5c(c4)CCC5)CC3)=CC2=N1` (centres undefined), with 655 s; and `Cc1cc(C)c(-c2csc(NC(=O)c3ccc(S(=O)(=O)N4CCOCC4)cc3)n2)c(C)c1`, with 1110 s. For the compound `NC(=O)C1CCN(C(=O)c2ccc(CN3C(=O)CCn4nc(-c5ccc(Cl)cc5)cc43)cc2)CC1`, the RP-LC retention time is 713 s. To `CCc1nnc([C@@H]2CC(F)(F)CN2C(=O)CCn2cccn2)o1` belongs 639 s; to `CCc1ccc(C(=O)Nc2nnc(SCc3nnc(-c4ccccc4)o3)s2)cc1`, 1000 s. With `Cc1cccc(N2CCN(Cc3nc(-c4ccc(N5CCOCC5)nc4)no3)CC2)c1C`, the RP-LC retention time turned out to be 945 s. In the case of `O=C(Nc1ccc2c(c1)OCCO2)C1CCN(C(=O)c2cc(-c3cccnc3)n[nH]2)CC1`, the RP-LC retention time is 655 s.

`CCn1nccc1C(=O)N1CCC2(CC1)C(=O)N(C)c1ccccc12` displayed an RP-LC retention time of 630 s. Turning to `Cc1ccc(C)c(C(=O)NC(c2ccccc2)c2nnc(N3CCCC3)o2)c1` (centres undefined), the RP-LC retention time came to 841 s. Then `Cc1cc(=O)n(CC(=O)Nc2ccc(Br)cc2F)c(N(C)Cc2ccccc2)n1`, with 862 s; and `Cc1ccc(CN2CCCn3nc(C(=O)NCCc4c[nH]c5ccc(Cl)cc45)cc3C2=O)cc1`, with 953 s. To `CCc1cc(C(=O)NCc2ccc(F)cc2)nc2ccnn12` belongs 909 s; to `COc1cc(-n2nnc(C(=O)NCc3ccco3)c2N)ccc1Cl`, 765 s. On to `Cc1nn(-c2nc(-c3ccc(F)cc3)cs2)c(C)c1CC(=O)Nc1cccc(C(F)(F)F)c1`, for which the RP-LC retention time was found to be 1280 s. To `CCc1nc2cc(N3CCC(C(=O)NCc4ccc(OC)cc4)CC3)cnc2nc1CC` belongs 833 s. Regarding `Cc1cc(C)nc(NS(=O)(=O)c2ccc(NC(=O)c3c(F)cccc3F)cc2)n1`, the RP-LC retention time is 653 s. Then `Cc1sc2ccn(C)c(=O)c2c1C(=O)N1CCC2(CC1)OCCO2`, with 626 s; and `O=C(Cn1c(=O)n(-c2ccc(F)cc2)c2ncccc21)NC1CCCC1`, with 773 s. Then `CCCCCC[C@@H]([C@@H](C)O)n1cnc2c(N)ncnc21`, with 714 s; and `Cc1ccc(C)c(CNC(=O)Cn2c(=O)c3nnc(C)n3c3ncccc32)c1`, with 712 s. Turning to `COc1cc(OC)cc(-c2nc(-c3ccc4c(c3)oc(=O)n4C(C)C)no2)c1`, the RP-LC retention time stood at 1080 s.

For `CCc1ccc(-c2cn3ccn(-c4cccc(F)c4)c(=O)c3n2)cc1`, the RP-LC retention time turned out to be 895 s. To `COc1ccc(S(=O)(=O)N2CCN(CCO)CC2)c2ccccc12` belongs 573 s; to `CC1CCCN(c2nc(C(=O)NC3CC3)cs2)C1` (centres undefined), 590 s; to `Cn1cc(S(=O)(=O)N2CCC(C(=O)NC3CCCC3)CC2)cc1C(=O)N1CCCCC1`, 732 s.

Compound `CCOC(=O)c1cnc2nc(C)ccc2c1Nc1ccc(Cl)cc1` showed an RP-LC retention time of 752 s. Then `CC(=O)c1ccc(NC(=O)c2cc(C(F)(F)F)n(C)n2)cc1`, with 871 s; and `Cc1ccccc1NC(=O)Cn1cnc2c(sc3nc(-c4ccccc4)ccc32)c1=O`, with 961 s.
